“And” between values parts separate entries of the source, which are not always exact repeats. Equal values may be shown once. Inconclusive results and toxic doses are left out. The calls were made as follows: active = survival T/C of 150% or more; inactive = T/C below 125% in these data.
System: CD2F1 mice, L1210 leukemia ip, survival T/C
Assay: NCI In Vivo Anticancer Drug Screen. Data for tumor model L1210 Leukemia (intraperitoneal) in CD2F1 (CDF1) mice
Conditions: higher = longer survival
Method in brief: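 In this screen, transplantable tumors were grown in mice given either the compound or its vehicle. Results were expressed as the treated measurement relative to the control measurement.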

[1] = endpoint: mean survival time, dose: 12.5 mg/kg/injection, schedule: Q01DX009 (ip), vehicle: saline with Tween-80
[2] = endpoint: mean survival time, dose: 25.0 mg/kg/injection, schedule: Q01DX009 (ip), vehicle: saline with Tween-80
[3] = endpoint: mean survival time, dose: 50.0 mg/kg/injection, schedule: Q01DX009 (ip), vehicle: saline with Tween-80
[4] = endpoint: mean survival time, dose: 25.0 mg/kg/injection, schedule: Q04DX003 (ip), vehicle: saline with Tween-80
[5] = endpoint: mean survival time, dose: 50.0 mg/kg/injection, schedule: Q04DX003 (ip), vehicle: saline with Tween-80
[6] = endpoint: mean survival time, dose: 100.0 mg/kg/injection, schedule: Q04DX003 (ip), vehicle: saline with Tween-80
[7] = endpoint: mean survival time, dose: 100.0 mg/kg/injection, schedule: Q01DX009 (ip), vehicle: saline with Tween-80
[8] = endpoint: mean survival time, dose: 200.0 mg/kg/injection, schedule: Q01DX009 (ip), vehicle: saline with Tween-80
[9] = endpoint: mean survival time, dose: 200.0 mg/kg/injection, schedule: Q04DX003 (ip), vehicle: saline with Tween-80
[10] = endpoint: mean survival time, dose: 400.0 mg/kg/injection, schedule: Q01DX009 (ip), vehicle: saline with Tween-80
[11] = endpoint: mean survival time, dose: 400.0 mg/kg/injection, schedule: Q04DX003 (ip), vehicle: saline with Tween-80
[12] = endpoint: mean survival time, dose: 100.0 mg/kg/injection, schedule: Q01DX001 (ip), vehicle: saline with Tween-80
[13] = endpoint: mean survival time, dose: 200.0 mg/kg/injection, schedule: Q01DX001 (ip), vehicle: saline with Tween-80
[14] = endpoint: mean survival time, dose: 400.0 mg/kg/injection, schedule: Q01DX001 (ip), vehicle: saline with Tween-80

Measured: T/C

CCC(CN(C)C)C(=O)c1ccccc1 (centres undefined)
inactive: endpoint: mean survival time, dose: 100.0 mg/kg/injection, schedule: Q04DX003 (ip), vehicle: saline 91 % of control | endpoint: mean survival time, dose: 200.0 mg/kg/injection, schedule: Q04DX002 (ip), vehicle: saline with Tween-80 86 % of control | endpoint: mean survival time, dose: 200.0 mg/kg/injection, schedule: Q04DX003 (ip), vehicle: saline 95 % of control

O=C=Nc1cccc2c(N=C=O)cccc12
inactive: [1] 91 % of control | [2] 102 % of control | [3] 91 % of control

CCCCCC/C(C)=C(/C#N)C(=O)OC
inactive: endpoint: mean survival time, dose: 75.0 mg/kg/injection, schedule: Q01DX001 (ip), vehicle: saline 94 % of control | endpoint: mean survival time, dose: 150.0 mg/kg/injection, schedule: Q01DX001 (ip), vehicle: saline 97 % of control | endpoint: mean survival time, dose: 300.0 mg/kg/injection, schedule: Q01DX001 (ip), vehicle: saline 96 % of control

Nc1nc(N)c2c(ccc3c2ccn3Cc2cccc([N+](=O)[O-])c2)n1
inactive: endpoint: median survival time, dose: 0.75 mg/kg/injection, schedule: Q01DX009 (ip), vehicle: saline with Tween-80 104 % of control | endpoint: median survival time, dose: 1.5 mg/kg/injection, schedule: Q01DX009 (ip), vehicle: saline with Tween-80 111 % of control | endpoint: median survival time, dose: 1.56 mg/kg/injection, schedule: Q01DX009 (ip), vehicle: saline with Tween-80 110 % of control | endpoint: median survival time, dose: 3.0 mg/kg/injection, schedule: Q01DX009 (ip), vehicle: saline with Tween-80 117 % of control | endpoint: median survival time, dose: 3.12 mg/kg/injection, schedule: Q01DX009 (ip), vehicle: saline with Tween-80 118 % of control | endpoint: median survival time, dose: 12.5 mg/kg/injection, schedule: Q01DX009 (ip), vehicle: saline with Tween-80 90 % of control and 98 % of control | endpoint: median survival time, dose: 25.0 mg/kg/injection, schedule: Q01DX009 (ip), vehicle: saline with Tween-80 102 % of control and 103 % of control

COc1ccc(C(=O)/C=N/O)cc1
inactive: [4] 100 % of control | [5] 100 % of control | [6] 95 % of control and 98 % of control

Cc1cn(C2OC(CO)C(O)C2Cl)c(=O)nc1N (centres undefined)
inactive: endpoint: median survival time, dose: 12.5 mg/kg/injection, schedule: Q01DX005 (ip), vehicle: saline 101 % of control | endpoint: median survival time, dose: 25.0 mg/kg/injection, schedule: Q01DX005 (ip), vehicle: saline 104 % of control | endpoint: median survival time, dose: 50.0 mg/kg/injection, schedule: Q01DX005 (ip), vehicle: saline 104 % of control | endpoint: median survival time, dose: 100.0 mg/kg/injection, schedule: Q01DX005 (ip), vehicle: saline 101 % of control | endpoint: median survival time, dose: 200.0 mg/kg/injection, schedule: Q01DX005 (ip), vehicle: saline 96 % of control

NCCc1ccncc1
inactive: endpoint: mean survival time, dose: 100.0 mg/kg/injection, schedule: Q04DX002 (ip), vehicle: saline 92 % of control | endpoint: mean survival time, dose: 200.0 mg/kg/injection, schedule: Q04DX002 (ip), vehicle: saline 92 % of control | endpoint: mean survival time, dose: 400.0 mg/kg/injection, schedule: Q04DX002 (ip), vehicle: saline 111 % of control

CN(C)CCc1ccc(O)cc1
inactive: endpoint: mean survival time, dose: 25.0 mg/kg/injection, schedule: Q01DX001 (ip), vehicle: saline 103 % of control | endpoint: mean survival time, dose: 50.0 mg/kg/injection, schedule: Q01DX001 (ip), vehicle: saline 105 % of control | endpoint: mean survival time, dose: 100.0 mg/kg/injection, schedule: Q01DX001 (ip), vehicle: saline 98 % of control and 100 % of control | [7] 97 % of control | [6] 102 % of control | [8] 102 % of control | [9] 96 % of control | [10] 101 % of control | [11] 104 % of control

COc1cc2c(c(OC)c1OC)-c1ccc(SCc3ccccc3)c(=O)cc1[C@@H](NC(C)=O)CC2
inactive: endpoint: mean survival time, dose: 1.56 mg/kg/injection, schedule: Q01DX009 (ip), vehicle: Klucel (hydroxypropylcellulose) (HPC) 103 % of control | endpoint: mean survival time, dose: 3.12 mg/kg/injection, schedule: Q01DX009 (ip), vehicle: Klucel (hydroxypropylcellulose) (HPC) 97 % of control | endpoint: mean survival time, dose: 6.25 mg/kg/injection, schedule: Q01DX009 (ip), vehicle: Klucel (hydroxypropylcellulose) (HPC) 112 % of control | endpoint: mean survival time, dose: 12.5 mg/kg/injection, schedule: Q01DX009 (ip), vehicle: Klucel (hydroxypropylcellulose) (HPC) 121 % of control | endpoint: mean survival time, dose: 25.0 mg/kg/injection, schedule: Q01DX009 (ip), vehicle: Klucel (hydroxypropylcellulose) (HPC) 117 % of control

COc1cc(OC)c(NC(=O)Oc2ccc(Br)cc2Br)cc1Cl
inactive: [1] 92 % of control | [2] 100 % of control | [3] 94 % of control and 107 % of control | [7] 94 % of control | [8] 90 % of control

CC(CCC(=O)O)(c1ccc(O)cc1)c1ccc(O)cc1
inactive: endpoint: mean survival time, dose: 100.0 mg/kg/injection, schedule: Q01DX009 (ip), vehicle: other 91 % of control | endpoint: mean survival time, dose: 200.0 mg/kg/injection, schedule: Q01DX009 (ip), vehicle: other 101 % of control | endpoint: mean survival time, dose: 400.0 mg/kg/injection, schedule: Q01DX009 (ip), vehicle: other 97 % of control

O=C(CCl)N1c2ccccc2Sc2ccccc21
inactive: endpoint: mean survival time, dose: 25.0 mg/kg/injection, schedule: Q01DX009 (ip), vehicle: water 93 % of control | endpoint: mean survival time, dose: 50.0 mg/kg/injection, schedule: Q01DX009 (ip), vehicle: water 91 % of control | endpoint: mean survival time, dose: 100.0 mg/kg/injection, schedule: Q01DX009 (ip), vehicle: water 95 % of control | endpoint: mean survival time, dose: 200.0 mg/kg/injection, schedule: Q01DX009 (ip), vehicle: water 95 % of control

CC1(C)CCC(C#N)=C1N
inactive: endpoint: mean survival time, dose: 12.5 mg/kg/injection, schedule: Q04DX003 (ip), vehicle: saline with Tween-80 97 % of control | [4] 97 % of control | [5] 91 % of control

CC12C(=O)C(C(c3ccccc3)=C1c1ccccc1)C(C(=O)O)C2C(=O)O (centres undefined)
inactive: [6] 89 % of control | [9] 93 % of control | [11] 101 % of control

NC1=C(Cl)C(=O)C(N)=C(Cl)C1=O
inactive: [6] 101 % of control | [9] 101 % of control

CCN1CCCC(Nc2nc(Nc3ccc(Cl)c(Cl)c3)nc3ccc(Cl)cc23)C1 (centres undefined)
inactive: [6] 89 % of control | [9] 94 % of control

CCOc1cccc(Cc2c[nH]c(=O)[nH]c2=O)c1
inactive: [12] 90 % of control | [13] 100 % of control | [14] 89 % of control

Clc1cccc(N=Cc2ccc3c(c2)OCO3)c1Cl
inactive: endpoint: mean survival time, dose: 100.0 mg/kg/injection, schedule: Q01DX001 (ip), vehicle: Klucel (hydroxypropylcellulose) (HPC) 100 % of control | endpoint: mean survival time, dose: 200.0 mg/kg/injection, schedule: Q01DX001 (ip), vehicle: Klucel (hydroxypropylcellulose) (HPC) 97 % of control | endpoint: mean survival time, dose: 400.0 mg/kg/injection, schedule: Q01DX001 (ip), vehicle: Klucel (hydroxypropylcellulose) (HPC) 103 % of control

CC(Oc1ccc(Br)cc1Br)C(=O)O (centres undefined)
inactive: [7] 97 % of control | [8] 94 % of control | [10] 94 % of control

CC(C)C1=CC2=CCC3C(C)(CN)CCCC3(C)C2CC1CCN (centres undefined)
inactive: endpoint: mean survival time, dose: 1.25 mg/kg/injection, schedule: Q01DX009 (ip), vehicle: saline with Tween-80 101 % of control | endpoint: mean survival time, dose: 2.5 mg/kg/injection, schedule: Q01DX009 (ip), vehicle: saline with Tween-80 97 % of control | endpoint: mean survival time, dose: 5.0 mg/kg/injection, schedule: Q01DX009 (ip), vehicle: saline with Tween-80 94 % of control

CC1Oc2cc3c(-c4c(O)cc(O)c5c(O)c6c(cc45)OC(C)C(C)C6=O)c(O)cc(O)c3c(O)c2C(=O)C1C (centres undefined)
inactive: endpoint: median survival time, dose: 5.0 mg/kg/injection, schedule: Q01DX009 (ip), vehicle: suspension in saline 87 % of control | endpoint: median survival time, dose: 10.0 mg/kg/injection, schedule: Q01DX009 (ip), vehicle: suspension in saline 91 % of control

C=CC(C)n1c(=O)c2c(ncn2C)n(C)c1=O (centres undefined)
inactive: endpoint: mean survival time, dose: 0.78 mg/kg/injection, schedule: Q04DX003 (ip), vehicle: saline with Tween-80 102 % of control | endpoint: mean survival time, dose: 1.56 mg/kg/injection, schedule: Q04DX003 (ip), vehicle: saline with Tween-80 102 % of control | endpoint: mean survival time, dose: 3.12 mg/kg/injection, schedule: Q04DX003 (ip), vehicle: saline with Tween-80 105 % of control

CCOC(=O)Cc1cnc(SC)nc1Nc1ccc(Br)cc1
inactive: [12] 89 % of control | [13] 89 % of control | [14] 100 % of control

CC1CN(Cc2ccccc2O)CC(C)N1 (centres undefined)
inactive: endpoint: mean survival time, dose: 25.0 mg/kg/injection, schedule: Q01DX005 (ip), vehicle: water 96 % of control | endpoint: mean survival time, dose: 50.0 mg/kg/injection, schedule: Q01DX005 (ip), vehicle: water 94 % of control | endpoint: mean survival time, dose: 100.0 mg/kg/injection, schedule: Q01DX005 (ip), vehicle: water 94 % of control

O=C(CNC(=O)NCc1ccco1)N/N=C/c1c(O)ccc2ccccc12
inactive: [3] 93 % of control | [7] 97 % of control | [8] 101 % of control
